Assays:
[1] = Intrinsic dissolution rate (IDR), Wood's apparatus; assay type: physicochemical; conditions: 900 ml distilled water, 37° C., 50 rpm; approx. 200 mg compressed at 1.5 metric tons for 1 minute
Experimental: Intrinsic dissolution rate (IDR) measurements were performed using a Wood's apparatus. Samples were prepared by compressing an amount (approximately 200 mg) of sample at 1.5 metric tons for 1 minute. A dissolution medium consisting of 900 ml distilled water maintained at 37° C., and rotation speed of 50 rpm, was used for each experiment.

[2] = drug substance, as described in CHMP Assessment Report; cited from earlier work
[3] = drug substance, as described in CHMP Assessment Report; cited from earlier work; remark: listed apart in the source

SMILES | Intrinsic Dissolution Rate [1] | Biopharmaceutics Classification System (BCS) class [2] | aqueous solubility [2] | permeability [3]
CNC(=O)c1ccc(N2C(=S)N(c3cnc(C#N)c(C(F)(F)F)c3)C(=O)C23CCC3)cc1F [Apalutamide Amorphous Form] | 0.0085 mg min^−1 cm^−2 | – | – | –
CNC(=O)c1ccc(N2C(=S)N(c3cnc(C#N)c(C(F)(F)F)c3)C(=O)C23CCC3)cc1F [Apalutamide Form B] | 0.0065 mg min^−1 cm^−2 | – | – | –
CNC(=O)c1ccc(N2C(=S)N(c3cnc(C#N)c(C(F)(F)F)c3)C(=O)C23CCC3)cc1F [apalutamide, (4-[7-(6-cyano-5-trifluoromethylpyridin-3-yl)-8-oxo-6-thioxo-5,7-diazaspiro[3.4]oct-5-yl]-2-fluoro-N-methylbenzamide)] | – | Class II | low, pH-independent | high

Reference: US20250049774A1, “Crystalline Forms of Apalutamide” (Apotex Inc., priority 2021, published 2025)
